Converted amounts (≈) assume the structure as drawn.
What was measured:
[1] = test system: human colorectal carcinoma HCT-116 cells; assay: Cell survival index (MTT + cell count) bioscreen, HCT-116; assay type: cell-based; settings: HCT-116, 48 h, human colon cancer cell line, 48 h of incubation, mean ± SEM (n = 30)
Description: (§1) Cell growth inhibition activity of compounds 1, 9a–i, 10a,b, and the positive control nutlin-3a was evaluated following 48 h of incubation with increasing concentrations of the compounds (from 1.5 to 25 µM) in human cancer (A375 and HCT-116) and healthy (L6) cell lines. […] The evaluation of the “cell survival index” show a typical concentration-dependent sigmoid trend, achieving IC50 values in the low micromolar range (Figure S2).
(§2) Human epithelial melanoma A375 cells, human colorectal carcinoma HCT-116 cells, and normal rat L6 myoblast were grown in DMEM (Invitrogen, Paisley, UK) supplemented with 10% fetal bovine serum (FBS, Cambrex, Verviers, Belgium), L-glutamine (2 mM, Sigma, Milan, Italy), penicillin (100 units/mL, Sigma), and streptomycin (100 μg/mL, Sigma) and cultured in a humidified 5% carbon dioxide atmosphere at 37 °C, according to ATCC recommendations. A375 and HCT-116 were used as preclinical human cancer models in vitro, while rat L6 were used as control healthy cells.
(§3) The antiproliferative activity of 1, 9a–i, and 10a,b was investigated through the estimation of a “cell survival index”, arising from the combination of cell viability evaluation with cell counting, as previously reported. The cell survival index is calculated as the arithmetic mean between the percentage values derived from the MTT assay and the automated cell count. Cells were inoculated in 96-microwell culture plates at a density of 10^4 cells/well and allowed to grow for 24 h. The medium was then replaced with fresh medium and cells were treated for an additional 48 h with a range of concentrations (from 1.5 to 25 μM) of 1, 9a–i, and 10a,b. Using the same experimental procedure, cell cultures were also incubated with DMSO as negative controls (vehicle), as well as with cisplatin (cDDP) and nutlin-3a as positive controls for cytotoxic and antiproliferative effects, respectively. Cell viability was evaluated using the MTT assay procedure. Cell number was determined by TC20 automated cell counter (Bio-Rad, Milan, Italy), providing an accurate and reproducible total count of cells and a live/dead ratio in one step by a specific dye (trypan blue) exclusion assay. The calculation of the concentration required to inhibit the net increase in the cell number and viability by 50% (IC50) is based on plots of data (n = 6 for each experiment) and repeated five times (total n = 30). IC50 values were calculated from a dose–response curve by nonlinear regression using a curve-fitting program, GraphPad Prism 5.0, and are expressed as mean values ± SEM (n = 30) of five independent experiments.

[2] = test system: human epithelial melanoma A375 cells; assay: Cell survival index (MTT + cell count) bioscreen, A375; assay type: cell-based; settings: for IC50: A-375, human melanoma cell line, 48 h of incubation, cell survival index, mean ± SEM (n = 30); for SI (selectivity index): SI = IC50 L6/IC50 A375
Description: as §1, §2, §3

normal rat L6 myoblast = assay: Cell survival index (MTT + cell count) bioscreen, L6; assay type: cell-based; settings: healthy rat myoblast cell line, 48 h of incubation, mean ± SEM (n = 30), read-out: L6 IC50
Description: as §1, §2, §3

[3] = Solubility assay in PBS by UV light scattering (precipitation point); assay type: physicochemical; settings: for solubility at 1 min: PBS (phosphate-buffered saline), aqueous buffer, kinetic from dmso stock, PBS solution pH = 7.4, 37 °C, mean ± SEM (n = 3)
Description: The solubility of all compounds was evaluated in a PBS solution (phosphate-buffered saline; Sigma-Aldrich, Merck KGaA, Darmstadt, Germany, pH = 7.4) by means of UV spectroscopy.
For each compound, the precipitation point was quantified measuring the increasing of the UV absorption of PBS in the range of 600–800 nm after successive additions of aliquots of a DMSO solution at specific concentration. Because of the absence of bands in the selected UV region, the increase in absorption is due to light scattering caused by the formation of particulate in the PBS. UV absorption data were graphically reported vs. μL of the added DMSO solution (x-axis), and the precipitation point was identified as the intersect point of the bilinear fitted curve. The x coordinate of the intersect point corresponded to the microlitres of DMSO added to PBS (1.4 mL) when the precipitation occurred, from which the concentration of the molecule in PBS at the precipitation point is readily calculated.
The solubility of each molecule in PBS was quantified measuring the UV scattering in the range of 600–800 nm (JASCO UV-530 spectrophotometer, equipped with ETC-505 T temperature controller). DMSO solutions of 1, 9a, 9b, 9c, 9d, 9e, 9f, ±10b, and nutlin-3a were used at a final concentration of 2.6 mM, whereas those of 9g, 9h, and 9i were used at 1.0 mM. A total of 1400 µL of degassed PBS was placed in a quartz cuvette (o.l. 0.5 cm), equilibrated 5 min at 37 °C, and then titrated by 7–10 successive additions of 0.5 µL or 0.3 µL from the DMSO solution. Each titration was performed without removing the cuvette from the UV cell and, after each addition, the solution was equilibrated 1 min a 37 °C under gently stirring before the acquisition of the UV data. For each molecule, the solubility was expressed as the mean ± SEM (n = 3).

[4] = test system: human A375 melanoma cells; assay: Apoptosis/Necrosis detection by fluorescence microscopy; assay type: cell-based; settings: A375 cells incubated with IC50 concentrations
Text: In order to confirm the possible activation of apoptosis, we performed fluorescence experiments to simultaneously monitor apoptotic and/or necrotic cells as well as deepen the biological effects on A375 triggered by exposure to the most bioactive derivatives under investigation (Figure 5).
Indeed, in apoptosis, PS is transferred to the outer leaflet of the plasma membrane. As a general indicator of the initial/intermediate stages of programmed cell death, the PS appearance on the cell surface can be detected as an apoptotic hallmark. Even in this circumstance, the results are very similar to those obtained with nutlin-3a.
The evaluation of apoptosis and/or necrosis induction after treatments in vitro was investigated by using the Apoptosis/Necrosis Detection kit (ab176749, Abcam, Discovery Drive, Cambridge Biomedical Campus, Cambridge, UK), which is optimized to simultaneously detect cell apoptosis (green), necrosis (red), and healthy cells (blue) by fluorescence microscopy analysis. […] As a universal indicator of the initial/intermediates stages of cell apoptosis, the appearance of PS on the cell surface can be detected before cytomorphological changes are observed. Thus, the phosphatidylserine (PS) early apoptotic sensor has green fluorescence (Ex/Em = 490/525 nm) upon binding to membrane PS. […]

[5] = DMSO solution 2.6 mM added to 1400 µL PBS
[6] = DMSO solution 1.0 mM added to 1400 µL PBS, Abs 640 nm

Row | Volume of DMSO solution added to PBS at the precipitation point [3, 5] | solubility at 1 min [3] | Volume of DMSO solution added to PBS at the precipitation point [3, 6] | Solubility fold higher than that of 1 ([3]; PBS pH 7.4, ratio of DMSO solution volumes at the precipitation points) | Compound | IC50 [1] | IC50 [2] | SI (selectivity index) [2] | CC50 (normal rat L6 myoblast) | Activation of apoptosis (phosphatidylserine sensor, green fluorescence) [4]
1 | 1,93 µL | 3.5 ± 0.3 µM (≈ 1.67 µg/mL) | – | – | Cc1c(C(=O)c2ccccc2)cc(C(=O)NCc2ccc(Cl)cc2)n1Cc1ccc(Cl)cc1 [compound 9e, 4-Benzoyl-N,1-bis(4-chlorobenzyl)-5-methyl-1H-pyrrole-2-carboxamide] | 34.6 ± 6 µM | 23 ± 6 µM | 1.6 | 38 ± 2 µM | –
2 | – | 2.4 ± 0.2 µM (≈ 1.4 µg/mL) | – | – | COc1ccc(C2=N[C@H](c3ccc(Cl)cc3)[C@H](c3ccc(Cl)cc3)N2C(=O)N2CCNC(=O)C2)c(OC(C)C)c1 [nutlin-3a, reference compound] | 12.5 ± 5 µM | 15 ± 3 µM | 1.2 | 18 ± 4 µM | –
3 | 1,41 µL | 2.6 ± 0.1 µM (≈ 1.24 µg/mL) | – | – | Cc1c(C(=O)c2ccccc2)cc(C(=O)NCc2cccc(C(F)(F)F)c2)n1Cc1ccccc1 [compound 9f, 4-Benzoyl-1-benzyl-5-methyl-N-(3-(trifluoromethyl)-benzyl)-1H-pyrrole-2-carboxamide] | 28.4 ± 7 µM | 27 ± 8 µM | 1.3 | 35 ± 7 µM | –
4 | 2,1 µL | 3.9 ± 0.2 µM (≈ 1.8 µg/mL) | – | – | Cc1c(C(=O)c2ccccc2)cc(C(=O)NCc2cccc(Cl)c2)n1Cc1ccc(F)cc1 [compound 9c, 4-Benzoyl-N-(3-chlorobenzyl)-1-(4-fluorobenzyl)-5-methyl-1H-pyrrole-2-carboxamide] | 55.9 ± 7 µM | 13 ± 4 µM | 2.7 | 35 ± 4 µM | consistent activation of apoptosis
5 | 2,14 µL | 3.9 ± 0.1 µM (≈ 1.86 µg/mL) | – | – | Cc1c(C(=O)c2ccccc2)cc(C(=O)NCc2cccc(Cl)c2)n1Cc1ccc(Cl)cc1 [compound 9a, 4-Benzoyl-N-(3-chlorobenzyl)-1-(4-chlorobenzyl)-5-methyl-1H-pyrrole-2-carboxamide] | 36.4 ± 8 µM | 18 ± 4 µM | 2.7 | 48 ± 5 µM | –
6 | – | 1.5 ± 0.2 µM (≈ 0.752 µg/mL) | 2,1 µL | – | CC(=O)c1cc(C(=O)NCc2cccc(Br)c2)n(Cc2ccc(C)cc2)c1-c1ccccc1 [compound 9g, 4-acetyl-N-(3-bromobenzyl)-1-(4-methylbenzyl)-5-phenyl-1H-pyrrole-2-carboxamide] | 34 ± 6 µM | 18 ± 5 µM | 3.9 | 71 ± 5 µM | –
7 | 1,67 µL | 3.1 ± 0.2 µM (≈ 1.42 µg/mL) | – | – | Cc1ccc(Cn2c(C(=O)NCc3ccc(Cl)cc3)cc(C(=O)c3ccccc3)c2C)cc1 [compound 9d, 4-Benzoyl-N-(4-chlorobenzyl)-5-methyl-1-(4-methylbenzyl)-1H-pyrrole-2-carboxamide] | 35.4 ± 6 µM | 15 ± 5 µM | 1.7 | 25 ± 6 µM | –
8 | – | 10.5 ± 0.1 µM (≈ 4.81 µg/mL) | – | 2.8 fold | Cc1c(C(=O)c2ccccc2)cc(C(=O)NCc2cccc(Cl)c2)n1Cc1ccc(N)cc1 [compound 10a, 1-(4-aminobenzyl)-4-benzoyl-N-(3-chlorobenzyl)-5-methyl-1H-pyrrole-2-carboxamide] | 41.3 ± 6 µM | 10 ± 4 µM | 5.6 | 55 ± 7 µM | consistent activation of apoptosis
9 | 1,7 µL | 3.1 ± 0.2 µM (≈ 1.47 µg/mL) | – | – | COc1ccc(Cn2c(C(=O)NCc3cccc(Cl)c3)cc(C(=O)c3ccccc3)c2C)cc1 [compound 9b, 4-Benzoyl-N-(3-chlorobenzyl)-1-(4-methoxybenzyl)-5-methyl-1H-pyrrole-2-carboxamide] | 46 ± 18 µM | 24 ± 14 µM | 1.7 | 40 ± 5 µM | –
10 | – | < 1 µM | 0.84 µL | – | Cc1ccc(Cn2c(C(=O)NCc3cccc(Cl)c3)cc(C(=O)c3ccc(C)cc3)c2C)cc1 [compound 9h, N-(3-chlorobenzyl)-5-methyl-4-(4-methylbenzoyl)-1-(4-methylbenzyl)-1H-pyrrole-2-carboxamide] | 56.3 ± 15 µM | 24 ± 6 µM | 1.7 | 42 ± 7 µM | –
11 | 3,6 µL | 6.7 ± 0.6 µM (≈ 3.08 µg/mL) | – | – | Cc1ccc(Cn2c(C(=O)NCc3cccc(Cl)c3)cc(C(O)c3ccccc3)c2C)cc1 (racemic) [(±)10b, (±)N-(3-chlorobenzyl)-4-(hydroxy(phenyl)methyl)-5-methyl-1-(4-methylbenzyl)-1H-pyrrole-2-carboxamide] | 25 ± 5 µM | 15 ± 5 µM | 3.6 | 54 ± 6 µM | –
12 | – | < 1 µM | 1,0 µL | – | COc1ccc(C(=O)c2cc(C(=O)NCc3cccc(Cl)c3)n(Cc3ccc(C)cc3)c2C)cc1 [compound 9i, N-(3-chlorobenzyl)-4-(4-methoxybenzoyl)-5-methyl-1-(4-methylbenzyl)-1H-pyrrole-2-carboxamide] | > 100 µM | 16 ± 6 µM | 4.2 | 66 ± 5 µM | –

Reference: publication PMC10223356, “Tetrasubstituted Pyrrole Derivative Mimetics of Protein–Protein Interaction Hot-Spot Residues: A Promising Class of Anticancer Agents Targeting Melanoma Cells” (Molecules, 2023)
